pIC50: −log10 of the molar value.
Each compound was assayed on Rattus norvegicus (assay: Anti-inflammatory activity against carrageenan-induced paw edema in Sprague-Dawley rat assessed as reduction in edema measured after 6 hrs relative to indomethacin).
Assay type: functional
Set-up: concentration or dose not given beside the values

Compound | Activity
COc1ccc(/C=C/C(=O)c2nn(-c3ccc(C)cc3)c(C)c2C(=O)/C=C/c2ccc(OC)cc2)cc1 | 43.78%
Cc1ccc(-n2nc(C(=O)/C=C/c3ccco3)c(C(=O)/C=C/c3ccco3)c2C)cc1 | 23.2%
Cc1ccc(-n2nc(C(=O)/C=C/c3ccccc3)c(C(=O)/C=C/c3ccccc3)c2C)cc1 | 61.76%
Cc1ccc(-n2nc(C(=O)/C=C/c3ccc(Cl)cc3)c(C(=O)/C=C/c3ccc(Cl)cc3)c2C)cc1 | 53.08%
Cc1c(C(=O)/C=C/c2ccc(Cl)cc2)c(C(=O)/C=C/c2ccc(Cl)cc2)nn1-c1ccccc1 | 57.97%
COc1ccc(/C=C/C(=O)c2nn(-c3ccccc3)c(C)c2C(=O)/C=C/c2ccc(OC)cc2)cc1 | 73.56%
Cc1c(C(=O)/C=C/c2ccco2)c(C(=O)/C=C/c2ccco2)nn1-c1ccccc1 | 58.6%
Cc1c(C(=O)/C=C/c2ccccc2)c(C(=O)/C=C/c2ccccc2)nn1-c1ccccc1 | 79.67%

The compounds below were run against COX-1/COX-2 (Homo sapiens) (UniProt P35354+P23219) (assay: Selectivity index, ratio of IC50 for COX-1 (unknown origin) to IC50 for COX-2 (unknown origin)).
Assay type: protein assay

COX-1/COX-2 (Homo sapiens), sequence (P23219 whole entry, looked up, one chain of several): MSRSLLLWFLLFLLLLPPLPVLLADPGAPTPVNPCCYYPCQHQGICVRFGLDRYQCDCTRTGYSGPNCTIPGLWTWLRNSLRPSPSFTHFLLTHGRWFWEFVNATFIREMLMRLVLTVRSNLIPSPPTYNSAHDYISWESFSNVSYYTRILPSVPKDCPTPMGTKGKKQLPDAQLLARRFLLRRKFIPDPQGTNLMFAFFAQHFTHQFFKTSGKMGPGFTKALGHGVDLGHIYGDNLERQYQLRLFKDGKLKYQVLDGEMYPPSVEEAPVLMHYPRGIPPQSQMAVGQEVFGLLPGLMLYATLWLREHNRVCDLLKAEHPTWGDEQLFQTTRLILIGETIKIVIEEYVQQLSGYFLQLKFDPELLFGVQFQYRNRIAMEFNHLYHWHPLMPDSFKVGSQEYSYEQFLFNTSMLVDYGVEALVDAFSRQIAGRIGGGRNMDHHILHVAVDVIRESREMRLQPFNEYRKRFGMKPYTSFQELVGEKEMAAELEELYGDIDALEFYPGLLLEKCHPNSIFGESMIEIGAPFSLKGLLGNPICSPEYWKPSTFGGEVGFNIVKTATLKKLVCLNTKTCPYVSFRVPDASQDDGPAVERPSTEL

Compound | Ratio IC50
COc1ccc(/C=C/C(=O)c2nn(-c3ccc(Br)cc3)c(C)c2C(=O)/C=C/c2ccc(OC)cc2)cc1 | 76
Cc1c(C(=O)/C=C/c2ccco2)c(C(=O)/C=C/c2ccco2)nn1-c1ccc(Cl)cc1 | 65.3
COc1ccc(/C=C/C(=O)c2nn(-c3ccc(F)cc3)c(C)c2C(=O)/C=C/c2ccc(OC)cc2)cc1 | 312
COc1ccc(/C=C/C(=O)c2nn(-c3ccc(Cl)cc3)c(C)c2C(=O)/C=C/c2ccc(OC)cc2)cc1 | 333

Each compound was assayed on Rattus norvegicus (assay: Anti-inflammatory activity against Carrageenan-induced paw edema in rat assessed as reduction in edema measured after 6 hrs relative to control).
Assay type: functional
Set-up: concentration or dose not given beside the values

Compound | Activity
Cc1c(C(=O)/C=C/c2ccco2)c(C(=O)/C=C/c2ccco2)nn1-c1ccc(Cl)cc1 | 27.86%
Cc1c(C(=O)/C=C/c2ccc(Cl)cc2Cl)c(C(=O)/C=C/c2ccc(Cl)cc2Cl)nn1-c1ccccc1 | 12.86%
Cc1c(C(=O)/C=C/c2ccc(Cl)cc2Cl)c(C(=O)/C=C/c2ccc(Cl)cc2Cl)nn1-c1ccc(F)cc1 | 13.57%
Cc1c(C(=O)/C=C/c2ccc(Cl)cc2Cl)c(C(=O)/C=C/c2ccc(Cl)cc2Cl)nn1-c1ccc(Cl)cc1 | 15.36%
Cc1ccc(-n2nc(C(=O)/C=C/c3ccc(Cl)cc3Cl)c(C(=O)/C=C/c3ccc(Cl)cc3Cl)c2C)cc1 | 10.71%
COc1ccc(/C=C/C(=O)c2nn(-c3ccc(F)cc3)c(C)c2C(=O)/C=C/c2ccc(OC)cc2)cc1 | 65.21%
Cc1c(C(=O)/C=C/c2ccc(Cl)cc2Cl)c(C(=O)/C=C/c2ccc(Cl)cc2Cl)nn1-c1ccc(Br)cc1 | 9.26%
Cc1c(C(=O)/C=C/c2ccco2)c(C(=O)/C=C/c2ccco2)nn1-c1ccc(F)cc1 | 16.79%
Cc1c(C(=O)/C=C/c2ccco2)c(C(=O)/C=C/c2ccco2)nn1-c1ccc(Br)cc1 | 1.07%
COc1ccc(/C=C/C(=O)c2nn(-c3ccc(Cl)cc3)c(C)c2C(=O)/C=C/c2ccc(OC)cc2)cc1 | 66.21%

The compounds below were run on Rattus norvegicus (assay: Anti-inflammatory activity against carrageenan-induced paw edema in Sprague-Dawley rat assessed as inhibition of paw edema at 10 mg/kg, ip measured after 3 hrs relative to control).
Assay type: functional
Set-up: scale not given: the % may be the effect or the level left

Compound | Activity
COc1ccc(/C=C/C(=O)c2nn(-c3ccc(C)cc3)c(C)c2C(=O)/C=C/c2ccc(OC)cc2)cc1 | 27.43%
Cc1ccc(-n2nc(C(=O)/C=C/c3ccco3)c(C(=O)/C=C/c3ccco3)c2C)cc1 | 9.69%
Cc1ccc(-n2nc(C(=O)/C=C/c3ccccc3)c(C(=O)/C=C/c3ccccc3)c2C)cc1 | 28.72%
Cc1ccc(-n2nc(C(=O)/C=C/c3ccc(Cl)cc3)c(C(=O)/C=C/c3ccc(Cl)cc3)c2C)cc1 | 21.23%
Cc1c(C(=O)/C=C/c2ccc(Cl)cc2)c(C(=O)/C=C/c2ccc(Cl)cc2)nn1-c1ccccc1 | 24.37%
COc1ccc(/C=C/C(=O)c2nn(-c3ccccc3)c(C)c2C(=O)/C=C/c2ccc(OC)cc2)cc1 | 32.69%
Cc1c(C(=O)/C=C/c2ccco2)c(C(=O)/C=C/c2ccco2)nn1-c1ccccc1 | 28.15%
Cc1c(C(=O)/C=C/c2ccccc2)c(C(=O)/C=C/c2ccccc2)nn1-c1ccccc1 | 32.58%

Each compound was assayed against T1, Seed linoleate 13S-lipoxygenase-1 (Glycine max, UniProt P08170) (assay: Inhibition of soybean LOX-1 using linoleic acid as substrate).
T1 sequence (P08170 whole entry): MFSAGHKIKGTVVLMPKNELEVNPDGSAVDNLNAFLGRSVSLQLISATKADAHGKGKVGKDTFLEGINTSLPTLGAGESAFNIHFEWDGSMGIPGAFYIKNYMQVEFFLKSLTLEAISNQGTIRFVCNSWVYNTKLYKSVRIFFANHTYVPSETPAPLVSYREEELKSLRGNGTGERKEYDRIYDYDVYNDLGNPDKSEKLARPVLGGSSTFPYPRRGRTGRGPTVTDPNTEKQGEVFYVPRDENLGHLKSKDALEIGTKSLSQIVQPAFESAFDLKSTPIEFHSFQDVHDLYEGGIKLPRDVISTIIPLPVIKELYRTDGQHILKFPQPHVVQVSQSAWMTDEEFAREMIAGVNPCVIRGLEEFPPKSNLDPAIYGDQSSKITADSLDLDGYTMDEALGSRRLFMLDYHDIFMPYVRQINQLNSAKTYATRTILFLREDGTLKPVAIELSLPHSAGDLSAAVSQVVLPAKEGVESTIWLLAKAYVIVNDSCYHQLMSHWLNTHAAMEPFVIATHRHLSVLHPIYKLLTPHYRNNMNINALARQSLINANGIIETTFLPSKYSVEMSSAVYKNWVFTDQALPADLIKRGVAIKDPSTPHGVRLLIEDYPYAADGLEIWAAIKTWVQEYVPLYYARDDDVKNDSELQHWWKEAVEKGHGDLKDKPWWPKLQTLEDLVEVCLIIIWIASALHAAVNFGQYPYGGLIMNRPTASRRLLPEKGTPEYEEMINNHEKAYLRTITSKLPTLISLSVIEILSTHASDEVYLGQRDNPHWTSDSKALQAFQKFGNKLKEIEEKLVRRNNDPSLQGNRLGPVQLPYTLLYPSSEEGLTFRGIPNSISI

Compound | pIC50
O=C(/C=C/c1ccc(Oc2ccccc2)cc1)c1ccc(OCCCOc2ccc(C(=O)/C=C/c3ccc(Oc4ccccc4)cc3)cc2)cc1 | 4.26
O=C(/C=C/c1cccc2ccccc12)c1ccc(OCCCOc2ccc(C(=O)/C=C/c3cccc4ccccc34)cc2)cc1 | 4.26
CN(C)c1ccc(/C=C/C=C/C(=O)c2ccc(OCCCOc3ccc(C(=O)/C=C/C=C/c4ccc(N(C)C)cc4)cc3)cc2)cc1 | 4.25

Each compound was assayed on Rattus norvegicus (assay: Anti-inflammatory activity against carrageenan-induced paw edema in Sprague-Dawley rat assessed as inhibition of paw edema at 10 mg/kg, ip measured after 6 hrs relative to control).
Assay type: functional
Set-up: scale not given: the % may be the effect or the level left

Compound | Activity
COc1ccc(/C=C/C(=O)c2nn(-c3ccc(C)cc3)c(C)c2C(=O)/C=C/c2ccc(OC)cc2)cc1 | 21.38%
Cc1ccc(-n2nc(C(=O)/C=C/c3ccco3)c(C(=O)/C=C/c3ccco3)c2C)cc1 | 11.33%
Cc1ccc(-n2nc(C(=O)/C=C/c3ccccc3)c(C(=O)/C=C/c3ccccc3)c2C)cc1 | 30.16%
Cc1ccc(-n2nc(C(=O)/C=C/c3ccc(Cl)cc3)c(C(=O)/C=C/c3ccc(Cl)cc3)c2C)cc1 | 25.92%
Cc1c(C(=O)/C=C/c2ccc(Cl)cc2)c(C(=O)/C=C/c2ccc(Cl)cc2)nn1-c1ccccc1 | 28.31%
COc1ccc(/C=C/C(=O)c2nn(-c3ccccc3)c(C)c2C(=O)/C=C/c2ccc(OC)cc2)cc1 | 35.92%
Cc1c(C(=O)/C=C/c2ccco2)c(C(=O)/C=C/c2ccco2)nn1-c1ccccc1 | 28.61%
Cc1c(C(=O)/C=C/c2ccccc2)c(C(=O)/C=C/c2ccccc2)nn1-c1ccccc1 | 38.9%

What follows are compounds tested against T2, Prostaglandin G/H synthase 2 (Homo sapiens, UniProt P35354) (assay: Inhibition of COX-2 (unknown origin)).
T2 sequence (P35354 whole entry): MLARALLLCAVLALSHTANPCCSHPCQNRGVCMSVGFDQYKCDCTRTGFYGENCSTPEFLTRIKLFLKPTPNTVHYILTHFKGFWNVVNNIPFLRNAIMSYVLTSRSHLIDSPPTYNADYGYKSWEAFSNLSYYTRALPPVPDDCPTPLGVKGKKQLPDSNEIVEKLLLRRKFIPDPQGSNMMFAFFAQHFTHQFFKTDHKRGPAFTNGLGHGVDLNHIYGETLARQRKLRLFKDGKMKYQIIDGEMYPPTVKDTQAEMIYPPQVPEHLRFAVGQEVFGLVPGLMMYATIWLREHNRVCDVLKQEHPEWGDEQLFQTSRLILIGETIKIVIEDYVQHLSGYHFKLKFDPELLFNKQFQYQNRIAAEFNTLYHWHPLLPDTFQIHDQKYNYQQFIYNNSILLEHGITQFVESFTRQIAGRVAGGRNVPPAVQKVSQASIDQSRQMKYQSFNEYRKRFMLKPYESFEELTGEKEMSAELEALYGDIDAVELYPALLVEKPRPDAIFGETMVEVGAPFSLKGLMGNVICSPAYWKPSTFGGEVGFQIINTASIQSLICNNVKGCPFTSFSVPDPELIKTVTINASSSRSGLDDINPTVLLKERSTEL

Compound | pIC50
COc1ccc(/C=C/C(=O)c2nn(-c3ccc(Br)cc3)c(C)c2C(=O)/C=C/c2ccc(OC)cc2)cc1 | 6.15
Cc1c(C(=O)/C=C/c2ccco2)c(C(=O)/C=C/c2ccco2)nn1-c1ccc(Cl)cc1 | 5.82
COc1ccc(/C=C/C(=O)c2nn(-c3ccc(F)cc3)c(C)c2C(=O)/C=C/c2ccc(OC)cc2)cc1 | 6.49
COc1ccc(/C=C/C(=O)c2nn(-c3ccc(Cl)cc3)c(C)c2C(=O)/C=C/c2ccc(OC)cc2)cc1 | 6.52

What follows are compounds tested on Rattus norvegicus (assay: Anti-inflammatory activity against carrageenan-induced paw edema in Sprague-Dawley rat assessed as reduction in edema measured after 3 hrs relative to indomethacin).
Assay type: functional
Set-up: concentration or dose not given beside the values

Compound | Activity
COc1ccc(/C=C/C(=O)c2nn(-c3ccc(C)cc3)c(C)c2C(=O)/C=C/c2ccc(OC)cc2)cc1 | 59.87%
Cc1ccc(-n2nc(C(=O)/C=C/c3ccco3)c(C(=O)/C=C/c3ccco3)c2C)cc1 | 21.14%
Cc1ccc(-n2nc(C(=O)/C=C/c3ccccc3)c(C(=O)/C=C/c3ccccc3)c2C)cc1 | 62.69%
Cc1ccc(-n2nc(C(=O)/C=C/c3ccc(Cl)cc3)c(C(=O)/C=C/c3ccc(Cl)cc3)c2C)cc1 | 59.87%
Cc1c(C(=O)/C=C/c2ccc(Cl)cc2)c(C(=O)/C=C/c2ccc(Cl)cc2)nn1-c1ccccc1 | 53.2%
COc1ccc(/C=C/C(=O)c2nn(-c3ccccc3)c(C)c2C(=O)/C=C/c2ccc(OC)cc2)cc1 | 71.35%
Cc1c(C(=O)/C=C/c2ccco2)c(C(=O)/C=C/c2ccco2)nn1-c1ccccc1 | 61.45%
Cc1c(C(=O)/C=C/c2ccccc2)c(C(=O)/C=C/c2ccccc2)nn1-c1ccccc1 | 77.66%

What follows are compounds tested against T3, Seed linoleate 13S-lipoxygenase-1 (Glycine max) (UniProt P08170) (assay: Inhibition of soybean LOX-1 using linoleic acid as substrate at 100 uM relative to control).
T3 sequence (whole entry): T1 sequence (P08170 whole entry)

Compound | inhibition
CC(/C=C/C(=O)c1ccc(OCCCOc2ccc(C(=O)/C=C/C(C)=C/c3ccccc3)cc2)cc1)=C\c1ccccc1 | 26.5%
O=C(/C=C/C=C/c1ccccc1)c1ccc(OCCCOc2ccc(C(=O)/C=C/C=C/c3ccccc3)cc2)cc1 | 41%
CN(C)c1ccc(/C=C/C=C/C(=O)c2ccc(OCCOc3ccc(C(=O)/C=C/C=C/c4ccc(N(C)C)cc4)cc3)cc2)cc1 | 77%
O=C(/C=C/C=C/c1ccc([N+](=O)[O-])cc1)c1ccc(OCCCOc2ccc(C(=O)/C=C/C=C/c3ccc([N+](=O)[O-])cc3)cc2)cc1 | 95%
O=C(/C=C/c1ccc(Oc2ccccc2)cc1)c1ccc(OCCCOc2ccc(C(=O)/C=C/c3ccc(Oc4ccccc4)cc3)cc2)cc1 | 100%
O=C(/C=C/c1ccc(OCc2ccc(Br)cc2)cc1)c1ccc(OCCCOc2ccc(C(=O)/C=C/c3ccc(OCc4ccc(Br)cc4)cc3)cc2)cc1 | 41%
O=C(/C=C/c1cccc2ccccc12)c1ccc(OCCCOc2ccc(C(=O)/C=C/c3cccc4ccccc34)cc2)cc1 | 100%
O=C(/C=C/c1c[nH]c2ccccc12)c1ccc(OCCCOc2ccc(C(=O)/C=C/c3c[nH]c4ccccc34)cc2)cc1 | 98%
CN(C)c1ccc(/C=C/C=C/C(=O)c2ccc(OCCCCOc3ccc(C(=O)/C=C/C=C/c4ccc(N(C)C)cc4)cc3)cc2)cc1 | 27%
O=C(/C=C/c1ccccc1)c1ccc(OCCCOc2ccc(C(=O)/C=C/c3ccccc3)cc2)cc1 | 76%
O=C(/C=C/c1cccs1)c1ccc(OCCCOc2ccc(C(=O)/C=C/c3cccs3)cc2)cc1 | 32%
O=C(/C=C/C(Br)=C/c1ccccc1)c1ccc(OCCCOc2ccc(C(=O)/C=C/C(Br)=C/c3ccccc3)cc2)cc1 | 24.5%
Cc1ccc(/C=C/C(=O)c2ccc(OCCCOc3ccc(C(=O)/C=C/c4ccc(C)o4)cc3)cc2)o1 | 52%
CN(C)c1ccc(/C=C/C=C/C(=O)c2ccc(OCCCCCCCOc3ccc(C(=O)/C=C/C=C/c4ccc(N(C)C)cc4)cc3)cc2)cc1 | 65%
CN(C)c1ccc(/C=C/C=C/C(=O)c2ccc(OCCCOc3ccc(C(=O)/C=C/C=C/c4ccc(N(C)C)cc4)cc3)cc2)cc1 | 93%
CN(C)c1ccc(/C=C/C=C/C(=O)c2ccc(OCCCCCOc3ccc(C(=O)/C=C/C=C/c4ccc(N(C)C)cc4)cc3)cc2)cc1 | 23%
CN(C)c1ccc(/C=C/C=C/C(=O)c2ccc(OCCCCCCOc3ccc(C(=O)/C=C/C=C/c4ccc(N(C)C)cc4)cc3)cc2)cc1 | 7%
O=C(/C=C/c1ccco1)c1ccc(OCCCOc2ccc(C(=O)/C=C/c3ccco3)cc2)cc1 | 57%
CN(C)c1ccc(/C=C/C=C/C(=O)c2ccc(OCCCCCCCCOc3ccc(C(=O)/C=C/C=C/c4ccc(N(C)C)cc4)cc3)cc2)cc1 | 12%
